Data: ChEMBL document CHEMBL2390858, “Design, synthesis and anti-tuberculosis activity of 1-adamantyl-3-heteroaryl ureas with improved in vitro pharmacokinetic properties” (Bioorg Med Chem, 2013)
≈ marks a conversion by molar mass, not a printed value.

What was measured:
[1] = biological target: T1, Bifunctional epoxide hydrolase 2 (Homo sapiens, UniProt P34913)
T1 sequence (P34913 whole entry): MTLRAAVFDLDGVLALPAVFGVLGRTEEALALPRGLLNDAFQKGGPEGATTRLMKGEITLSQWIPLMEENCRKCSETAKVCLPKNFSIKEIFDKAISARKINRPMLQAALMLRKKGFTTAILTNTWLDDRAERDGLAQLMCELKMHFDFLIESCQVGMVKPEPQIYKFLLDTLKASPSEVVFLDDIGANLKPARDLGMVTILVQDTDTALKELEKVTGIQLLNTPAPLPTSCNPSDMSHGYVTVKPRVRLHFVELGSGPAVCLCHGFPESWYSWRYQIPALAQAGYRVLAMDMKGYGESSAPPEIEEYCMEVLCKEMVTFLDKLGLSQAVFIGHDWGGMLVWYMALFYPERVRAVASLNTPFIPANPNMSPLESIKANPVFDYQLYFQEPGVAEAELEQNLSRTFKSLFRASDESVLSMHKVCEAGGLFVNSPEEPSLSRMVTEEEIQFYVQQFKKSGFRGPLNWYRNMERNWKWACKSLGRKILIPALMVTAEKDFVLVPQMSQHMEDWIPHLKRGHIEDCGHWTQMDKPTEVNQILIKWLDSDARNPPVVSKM

Plasma = conditions: human, 4 h, 10 µM
[2] = buffer
Vero = assay: cells; conditions: Chlorocebus sabaeus, 72 h
Pseudomonas aeruginosa = assay: microbe, parasite or virus in culture
Proteus vulgaris = assay: microbe, parasite or virus in culture
Proteus mirabilis = assay: microbe, parasite or virus in culture
Klebsiella pneumoniae = assay: microbe, parasite or virus in culture
Escherichia coli = assay: microbe, parasite or virus in culture; conditions: K-12
Burkholderia cepacia = assay: microbe, parasite or virus in culture
Bacillus subtilis = assay: microbe, parasite or virus in culture
Acinetobacter = assay: microbe, parasite or virus in culture
Streptococcus pneumoniae = assay: microbe, parasite or virus in culture
Streptococcus pyogenes = assay: microbe, parasite or virus in culture
Staphylococcus aureus [3] = assay: microbe, parasite or virus in culture; conditions: NRS70
Staphylococcus aureus [4] = assay: microbe, parasite or virus in culture; conditions: ATCC 29213
Enterococcus faecalis = assay: microbe, parasite or virus in culture
Bacillus anthracis = assay: microbe, parasite or virus in culture; conditions: Sterne
[5] = system: Mycobacterium tuberculosis; assay: microbe, parasite or virus in culture; conditions: H37Rv, 168 h
in vitro = conditions: human, plasma
physchem = conditions: system solution buffer, pH 7.4
[6] = Metabolic stability in CD-1 mouse liver microsomes assessed as compound remaining after 90 mins in presence of NADPH; type: ADME, Microsome; conditions: read-out: Stability

SMILES | IC50 [1] [nM] | IC50 (Vero) [µg/mL] | MIC (Pseudomonas aeruginosa) [µg/mL] | MIC (Proteus vulgaris) [µg/mL] | MIC (Proteus mirabilis) [µg/mL] | MIC (Klebsiella pneumoniae) [µg/mL] | MIC (Escherichia coli) [µg/mL] | MIC (Burkholderia cepacia) [µg/mL] | MIC (Bacillus subtilis) [µg/mL] | MIC (Acinetobacter) [µg/mL] | MIC (Streptococcus pneumoniae) [µg/mL] | MIC (Streptococcus pyogenes) [µg/mL] | MIC (Staphylococcus aureus [3]) [µg/mL] | MIC (Staphylococcus aureus [4]) [µg/mL] | MIC (Enterococcus faecalis) [µg/mL] | MIC (Bacillus anthracis) [µg/mL] | MIC [5] [µg/mL] | further results
CCCn1nc(NC(=O)NC2C3CC4CC(C3)CC2C4)cc1C (stereo not drawn) | 936 | 83 (≈ 262 µM) | > 200 | > 200 | > 200 | > 200 | > 200 | > 200 | > 200 | > 200 | > 200 | > 200 | > 200 | > 200 | > 200 | > 200 | 1.56 (≈ 4.93 µM) | PPB (Plasma): 98.9%; solubility ([2]; 18 h, pH 7.4): 2 µg/mL (≈ 6.32 µM)
Cc1ccc(NC(=O)NC2CCCCCC2)cc1Cl |  |  |  |  |  |  |  |  |  |  |  |  |  |  |  |  |  | fraction unbound at 4 h, 10 µM (in vitro): 0.003; solubility at 18 h (physchem): < 0.1 µg/mL
CC(C)c1nnc(NC(=O)NC23CC4CC(CC(C4)C2)C3)o1 | 557 | 11 (≈ 36.1 µM) | > 200 | > 200 | > 200 | > 200 | > 200 | > 200 | > 200 | > 200 | > 200 | > 200 | > 200 | > 200 | > 200 | > 200 | 1.56 (≈ 5.12 µM) | PPB (Plasma): 99.3%; solubility ([2]; 18 h, pH 7.4): 9.54 µg/mL (≈ 31.3 µM)
O=C(Nc1ccc(F)c(F)c1F)NC12CC3CC(CC(C3)C1)C2 |  |  |  |  |  |  |  |  |  |  |  |  |  |  |  |  |  | solubility at 18 h (physchem): < 0.1 µg/mL
Cc1cc(NC(=O)NC2C3CC4CC(C3)CC2C4)no1 (stereo not drawn) | 5 | > 48 | > 200 | > 200 | > 200 | > 200 | > 200 | > 200 | > 200 | > 200 | > 200 | > 200 | > 200 | > 200 | > 200 | > 200 | 6.25 (≈ 22.7 µM) | solubility ([2]; 18 h, pH 7.4): 25.5 µg/mL (≈ 92.6 µM)
N#Cc1ccc(NC(=O)NC2C3CC4CC(C3)CC2C4)cc1 (stereo not drawn) |  |  |  |  |  |  |  |  |  |  |  |  |  |  |  |  |  | fraction unbound at 4 h, 10 µM (in vitro): 0.01; solubility at 18 h (physchem): < 0.1 µg/mL
CC(C)c1nnc(NC(=O)NC2C3CC4CC(C3)CC2C4)o1 (stereo not drawn) | 843 | 33 (≈ 108 µM) | > 200 | > 200 | > 200 | > 200 | > 200 | > 200 | 100 (≈ 329 µM) | > 200 | 100 (≈ 329 µM) | 200 (≈ 657 µM) | > 200 | > 200 | 100 (≈ 329 µM) | 100 (≈ 329 µM) | 1.56 (≈ 5.12 µM) | remaining at […] [6]: > 30%; PPB (Plasma): 98%
COC(=O)c1ccc(NC(=O)NC23CC4CC(CC(C4)C2)C3)cc1O |  |  |  |  |  |  |  |  |  |  |  |  |  |  |  |  |  | solubility ([2]; pH 7.4, 18 h): 0.51 µg/mL (≈ 1.48 µM); fraction unbound at 4 h, 10 µM (in vitro): 0.031
Cc1csc(NC(=O)NC23CC4CC(CC(C4)C2)C3)n1 | 485 | 13 (≈ 44.6 µM) | > 200 | > 200 | > 200 | > 200 | > 200 | > 200 | > 200 | > 200 | 25 (≈ 85.8 µM) | > 200 | 100 (≈ 343 µM) | 50 (≈ 172 µM) | > 200 | > 200 | 1.56 (≈ 5.35 µM) | 
O=C(Nc1ncco1)NC12CC3CC(CC(C3)C1)C2 | 948 | 22 (≈ 84.2 µM) | > 200 | > 200 | > 200 | > 200 | > 200 | > 200 | > 200 | > 200 | > 200 | > 200 | > 200 | > 200 | > 200 | > 200 | 6.25 (≈ 23.9 µM) | solubility ([2]; 18 h, pH 7.4): 4.4 µg/mL (≈ 16.8 µM)
O=C(Nc1nnc(C2CCC2)o1)NC1C2CC3CC(C2)CC1C3 (stereo not drawn) | 382 | 36 (≈ 114 µM) | > 200 | > 200 | > 200 | > 200 | > 200 | 50 (≈ 158 µM) | 50 (≈ 158 µM) | > 200 | 100 (≈ 316 µM) | 100 (≈ 316 µM) | > 200 | > 200 | > 200 | 25 (≈ 79 µM) | 0.78 (≈ 2.47 µM) | remaining at […] [6]: > 30%
Cc1cnc(NC(=O)NC23CC4CC(CC(C4)C2)C3)s1 | 116 | 23 (≈ 78.9 µM) | > 200 | > 200 | > 200 | > 200 | > 200 | > 200 | > 200 | > 200 | > 200 | > 200 | 200 (≈ 686 µM) | > 200 | 200 (≈ 686 µM) | > 200 | 3.13 (≈ 10.7 µM) | 
O=C(Nc1nc2ccccc2s1)NC12CC3CC(CC(C3)C1)C2 | 3 | 17 (≈ 51.9 µM) | > 200 | > 200 | > 200 | > 200 | > 200 | > 200 | 200 (≈ 611 µM) | > 200 | > 200 | > 200 | > 200 | > 200 | > 200 | 200 (≈ 611 µM) | 0.78 (≈ 2.38 µM) | 
CC1C(NC(=O)Nc2ccc(F)c(F)c2F)CC2CC1C2(C)C (stereo not drawn) |  |  |  |  |  |  |  |  |  |  |  |  |  |  |  |  |  | fraction unbound at 4 h, 10 µM (in vitro): 0.008; solubility at 18 h (physchem): < 0.1 µg/mL
CC(C)(C)c1cc(NC(=O)NC23CC4CC(CC(C4)C2)C3)no1 | 56 | 6 (≈ 18.9 µM) | > 200 | > 200 | > 200 | > 200 | 100 (≈ 315 µM) |  | > 200 | > 200 | > 200 | > 200 | 200 (≈ 630 µM) | 100 (≈ 315 µM) | 100 (≈ 315 µM) | > 200 | 1.56 (≈ 4.91 µM) | remaining at […] [6]: > 30%
